Data: patent US4401604A, “Process for preparing thiosulfenamide derivatives of N-phosphonomethylglycine triesters” (Monsanto Company, priority 1981, dated 1983)

Assays:
Assay in all cases: Post-emergence herbicidal activity, greenhouse
Assay type in all cases: in vivo
Barnyardgrass = system: Barnyardgrass
From the text: (§1) A good grade of top soil is placed in aluminum pans having holes in the bottom and compacted to a depth of 0.95 to 1.27 cm. from the top of the pan. A predetermined number of seeds of each of several dicotyledonous and monocotyledonous annual plant species and/or vegetative propagules for the perennial plant species are placed on the soil and pressed into the soil surface. The seeds and/or vegetative propagules are covered with soil and leveled. The pans are then placed on a sand bench in the greenhouse and watered from below as needed. After the plants reach the desired age (two to three weeks), each pan except for the control pans is removed individually to a spraying chamber and sprayed by means of an atomizer operating at a positive air pressure of approximately 1.46 kg/cm^2 absolute. The atomizer contains 6 ml. of a solution or suspension of the chemical. In that 6 ml., is an amount of a cyclohexanone emulsifying agent mixture to give a spray solution or suspension which contains about 0.4% by weight of the emulsifier. The spray solution or suspension contains a sufficient amount of the candidate chemical in order to give application rates corresponding to those set forth in the tables. The spray solution is prepared by taking an aliquot of a 1.0% by weight stock solution or suspension of the candidate chemical in an organic solvent such as acetone or tetrahydrofuran or in water. The emulsifying agent employed is a mixture comprising 35 weight percent butylamine dodecylbenzene sulfonate and 65 weight percent of a tall oil ethylene oxide condensate having about 11 moles of ethylene oxide per mole of tall oil. The pans are returned to the greenhouse and watered as before and the injury to the plants as compared to the control is observed at approximately two and four weeks as indicated in the tables under WAT and the results recorded. In some instances, the two-week observations are omitted.
(§2) The post-emergence herbicidal activity index used in Table I is as follows:
(§3) The plant species utilized in these tests are identified by letter in accordance with the following legend: […]

Canada Thistle = conditions: Table I, 4 WAT
From the text: as §1, §2, §3

Cocklebur = system: Cocklebur
From the text: as §1, §2, §3

Crabgrass = conditions: Table II
From the text: as §1, §2, §3

Downy Brome = system: Downy Brome
From the text: as §1, §2, §3

Hemp Sesbania = conditions: Table II
From the text: as §1, §2, §3

Johnsongrass = conditions: Table I, 4 WAT
From the text: as §1, §2, §3

Lambsquarters = system: Lambsquarters
From the text: as §1, §2, §3

Morningglory = system: Morningglory
From the text: as §1, §2, §3

Panicum Spp = conditions: Table II
From the text: as §1, §2, §3

Quackgrass = conditions: Table I, 4 WAT
From the text: as §1, §2, §3

## COC(=O)CN(CP(=O)(Oc1ccccc1OC)Oc1ccccc1OC)SSc1cccc(C(F)(F)F)c1 [V]
Barnyardgrass; Table I, 5.6 kg/h, 4 WAT
  post-emergence herbicidal activity index: 3 (75-99% control)
Barnyardgrass; Table I, 11.2 kg/h, 4 WAT
  post-emergence herbicidal activity index: 3 (75-99% control)
Barnyardgrass; Table II, 0.28 kg/h, 2 WAT
  post-emergence herbicidal activity index: 0 (0- 24% control)
Barnyardgrass; Table II, 1.12 kg/h, 4 WAT
  post-emergence herbicidal activity index: 0 (0- 24% control)
Barnyardgrass; Table II, 5.6 kg/h, 4 WAT
  post-emergence herbicidal activity index: 3 (75-99% control)
Canada Thistle; 5.6 kg/h
  post-emergence herbicidal activity index: 0 (0- 24% control)
Canada Thistle; 11.2 kg/h
  post-emergence herbicidal activity index: 1 (25-49% control)
Cocklebur; Table I, 5.6 kg/h, 4 WAT
  post-emergence herbicidal activity index: 2 (50-74% control)
Cocklebur; Table I, 11.2 kg/h, 4 WAT
  post-emergence herbicidal activity index: 3 (75-99% control)
Cocklebur; Table II, 0.28 kg/h, 2 WAT
  post-emergence herbicidal activity index: 0 (0- 24% control)
Cocklebur; Table II, 1.12 kg/h, 4 WAT
  post-emergence herbicidal activity index: 1 (25-49% control)
Cocklebur; Table II, 5.6 kg/h, 4 WAT
  post-emergence herbicidal activity index: 3 (75-99% control)
Crabgrass; 0.28 kg/h, 2 WAT
  post-emergence herbicidal activity index: 0 (0- 24% control)
Crabgrass; 1.12 kg/h, 4 WAT
  post-emergence herbicidal activity index: 2 (50-74% control)
Crabgrass; 5.6 kg/h, 4 WAT
  post-emergence herbicidal activity index: 3 (75-99% control)
Downy Brome; Table I, 5.6 kg/h, 4 WAT
  post-emergence herbicidal activity index: 1 (25-49% control)
Downy Brome; Table I, 11.2 kg/h, 4 WAT
  post-emergence herbicidal activity index: 1 (25-49% control)
Downy Brome; Table II, 0.28 kg/h, 2 WAT
  post-emergence herbicidal activity index: 0 (0- 24% control)
Downy Brome; Table II, 1.12 kg/h, 4 WAT
  post-emergence herbicidal activity index: 0 (0- 24% control)
Downy Brome; Table II, 5.6 kg/h, 4 WAT
  post-emergence herbicidal activity index: 0 (0- 24% control)
Hemp Sesbania; 0.28 kg/h, 2 WAT
  post-emergence herbicidal activity index: 0 (0- 24% control)
Hemp Sesbania; 1.12 kg/h, 4 WAT
  post-emergence herbicidal activity index: 2 (50-74% control)
Hemp Sesbania; 5.6 kg/h, 4 WAT
  post-emergence herbicidal activity index: 1 (25-49% control)
Johnsongrass; 5.6 kg/h
  post-emergence herbicidal activity index: 1 (25-49% control)
Johnsongrass; 11.2 kg/h
  post-emergence herbicidal activity index: 2 (50-74% control)
Lambsquarters; Table I, 5.6 kg/h, 4 WAT
  post-emergence herbicidal activity index: 3 (75-99% control)
Lambsquarters; Table I, 11.2 kg/h, 4 WAT
  post-emergence herbicidal activity index: 3 (75-99% control)
Lambsquarters; Table II, 0.28 kg/h, 2 WAT
  post-emergence herbicidal activity index: 0 (0- 24% control)
Lambsquarters; Table II, 1.12 kg/h, 4 WAT
  post-emergence herbicidal activity index: 3 (75-99% control)
Lambsquarters; Table II, 5.6 kg/h, 4 WAT
  post-emergence herbicidal activity index: 3 (75-99% control)
Morningglory; Table I, 5.6 kg/h, 4 WAT
  post-emergence herbicidal activity index: 1 (25-49% control)
Morningglory; Table I, 11.2 kg/h, 4 WAT
  post-emergence herbicidal activity index: 2 (50-74% control)
Morningglory; Table II, 0.28 kg/h, 2 WAT
  post-emergence herbicidal activity index: 0 (0- 24% control)
Morningglory; Table II, 1.12 kg/h, 4 WAT
  post-emergence herbicidal activity index: 1 (25-49% control)
Morningglory; Table II, 5.6 kg/h, 4 WAT
  post-emergence herbicidal activity index: 1 (25-49% control)
Panicum Spp; 0.28 kg/h, 2 WAT
  post-emergence herbicidal activity index: 0 (0- 24% control)
Panicum Spp; 1.12 kg/h, 4 WAT
  post-emergence herbicidal activity index: 0 (0- 24% control)
Panicum Spp; 5.6 kg/h, 4 WAT
  post-emergence herbicidal activity index: 1 (25-49% control)
Quackgrass; 5.6 kg/h
  post-emergence herbicidal activity index: 1 (25-49% control)
Quackgrass; 11.2 kg/h
  post-emergence herbicidal activity index: 4 (100% control)
